Consider 21 compounds from patent US8426447B2, “Spiro-tricyclic ring compounds as beta-secretase modulators and methods of use” (Amgen Inc., priority 2008, dated 2013).

Assay [1] concerns the target T1, BACE1 (Homo sapiens, UniProt P56817). Put plainly: In Vitro Enzymatic BACE FRET (Fluorescence Resonance Energy Transfer) Assay. It is filed as biochemical. To be noted: read-out: BACE1 FRET assay. The method in brief:
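Buffer 0.05 M acetate pH 4.2 with 10% DMSO final and 100 uM genapol; reaction started with 50 nM FRET peptide substrate (fluorophore/quencher flanking BACE cleavage site), incubated one hour. Stopped with Tris buffer raising pH to neutrality, then fluorescence read.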

In assay [2] the target is T1, BACE1. Put plainly: In Vitro BACE Cell-based Assay (HEK cell assay): Aβ40 in conditioned medium of cells stably expressing Amyloid Precursor Protein, sandwich ELISA. To be noted: read-out: HEK cell assay. A digest of the protocol: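 Read-out is time-resolved fluorescence of Aβ40 in supernatant, captured by pAb40 and detected with biotinylated 6E10 plus Streptavidin-Europium. Cells stably expressing APP received compounds for 24 h over 10 concentrations starting at 100 μM or 10 μM, final DMSO 0.1%.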

Setting [3] is: in vitro BACE FRET enzyme assay, IC50 class symbols.
Where [4] appears, read: HEK cell-based assay, Aβ40 in conditioned medium, IC50 class symbols.

Bounds are passed on as bounds.

T1 sequence (P56817 46-501, species assumed): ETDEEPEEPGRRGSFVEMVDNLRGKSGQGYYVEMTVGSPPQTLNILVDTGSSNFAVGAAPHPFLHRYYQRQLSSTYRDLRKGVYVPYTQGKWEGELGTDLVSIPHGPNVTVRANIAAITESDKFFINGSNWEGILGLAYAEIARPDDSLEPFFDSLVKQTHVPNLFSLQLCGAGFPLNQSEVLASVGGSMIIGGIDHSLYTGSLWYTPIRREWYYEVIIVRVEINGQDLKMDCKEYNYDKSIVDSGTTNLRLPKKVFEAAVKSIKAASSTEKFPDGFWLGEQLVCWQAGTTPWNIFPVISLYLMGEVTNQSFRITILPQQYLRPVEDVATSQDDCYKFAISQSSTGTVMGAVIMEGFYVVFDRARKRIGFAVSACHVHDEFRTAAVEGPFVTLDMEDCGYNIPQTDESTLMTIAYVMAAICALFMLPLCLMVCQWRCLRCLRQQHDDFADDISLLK

`CC(C)(C#N)COc1cnc2c(c1)[C@]1(COC(N)=N1)c1cc(-c3cc(F)ccc3F)ccc1O2` [compound 407]: the IC50 on BACE1 [1] (setting [3]) and on BACE1 [2] (setting [4]) was below 0.1 µM throughout.
Regarding `COC(C)(C)COc1ccc2c(c1)[C@]1(COC(N)=N1)c1cc(C#CC3CC3)ccc1O2` [compound 982], the values for the IC50 at BACE1 [1] and on BACE1 [2] were below 0.1 µM and 0.1 to 1 µM, respectively.
Consider `NC1=N[C@]2(CO1)c1cc(C#CCCO)ccc1Oc1ccc(-c3cccnc3)cc12` [compound 183], for which the IC50 at BACE1 [1] (Table III, IC50's in uM ranges) is below 0.1 µM; on BACE1 [2] (Table III, IC50's in uM ranges) it was below 0.1 µM.
As for `COc1ccc(-c2ccc3c(c2)[C@]2(COC(N)=N2)c2cc(-c4cncnc4)ccc2O3)cc1OC` [compound 830], the IC50 on BACE1 [1] (Table IV, class symbols) is below 0.1 µM; at BACE1 [2] (Table IV, class symbols) it was 0.1 to 1 µM.
As to `Cc1ccc(-c2ccc3c(c2)[C@]2(COC(N)=N2)c2cc(-c4cncnc4)ccc2O3)cc1` [compound 226], the IC50 is below 0.1 µM on BACE1 [1] (Table III, IC50's in uM ranges) and below 0.1 µM at BACE1 [2] (Table III, IC50's in uM ranges).
As for `CC(C)(C)COc1ccc2c(c1)[C@]1(COC(N)=N1)c1cc(-c3c[nH]cn3)ccc1O2` [compound 978], the IC50 at BACE1 [1] fell in the range of 0.1 to 1 µM; at BACE1 [2], 1 to 5 µM.
For the compound `NC1=NC2(CO1)c1cc(-c3ccc(F)nc3)ccc1Oc1ccc(-c3ccc(F)nc3)cc12` [compound 196], the IC50 at BACE1 [1] (Table III, IC50's in uM ranges) is below 0.1 µM; at BACE1 [2] (Table III, IC50's in uM ranges), 0.1 to 1 µM.
With `COC(C)(C)CCc1ccc2c(c1)[C@]1(COC(N)=N1)c1cc(-c3cccnc3)ccc1O2` [compound 1001], the IC50 on BACE1 [1] and on BACE1 [2] was below 0.1 µM throughout.
On to `CCOc1ccc(-c2cnc3c(c2)[C@]2(COC(N)=N2)c2cc(OCC(C)(C)C)ccc2O3)cn1` [compound 804], for which the IC50 is below 0.1 µM at BACE1 [1] (Table IV, class symbols) and below 0.1 µM at BACE1 [2] (Table IV, class symbols).
In the case of `NC1=N[C@@]2(CO1)c1ccccc1Oc1ccc(-c3cc4ccccc4o3)cc12` [compound 587], the IC50 on BACE1 [1] (Table IV, class symbols) fell in the range of 1 to 5 µM; on BACE1 [2] (Table IV, class symbols) it was 1 to 5 µM.
For `CC1(COc2ccc3c(c2)[C@]2(COC(N)=N2)c2cc(-c4cccnc4)cnc2O3)COC1` [compound 165], the IC50 at BACE1 [1] (Table III, IC50's in uM ranges) is below 0.1 µM; at BACE1 [2] (Table III, IC50's in uM ranges) it was below 0.1 µM.
`NC1=N[C@]2(CO1)c1cc(-c3ccc(O)cc3)ccc1Oc1ccc(-c3cncnc3)cc12` [compound 890]: the IC50 on BACE1 [1] (Table IV, class symbols) is below 0.1 µM; on BACE1 [2] (Table IV, class symbols), 0.1 to 1 µM.
Consider `CC(C)(C)COc1ccc2c(n1)[C@@]1(COC(N)=N1)c1cc(-c3cncnc3)ccc1O2` [compound 732], for which the IC50 at BACE1 [1] and at BACE1 [2] was 1 to 5 µM each time.
As for `CC(C)(C)COc1ccc2c(c1)[C@]1(COC(N)=N1)c1cc(C3CCCCO3)ccc1O2` (stereo partly drawn) [compound 656], the IC50 at BACE1 [1] (Table IV, class symbols) is below 0.1 µM; on BACE1 [2] (Table IV, class symbols), 0.1 to 1 µM.
Consider `COc1ccc2c(c1)[C@]1(COC(N)=N1)c1cc(-c3cncnc3)ccc1O2` [Example 10, (4S)-2′-methoxy-7′-(5-pyrimidinyl)spiro[1,3-oxazole-4,9′-xanthen]-2-amine], for which the IC50 at BACE1 [1] (Table 1) was in the range of 0.1 to 1 µM; on BACE1 [2] (Table 1, Aβ40, 24 h incubation), 1 to 5 µM.
As to `NC1=N[C@@]2(CO1)c1cc(-c3ccc(F)nc3)ccc1Oc1cnc(-c3ccc(F)nc3)cc12` [compound 433], the IC50 was below 0.1 µM at BACE1 [1] and 0.1 to 1 µM at BACE1 [2] (HEK cells).
As to `CCCOc1ccc2c(c1)[C@@]1(COC(N)=N1)c1cc(-c3cncnc3)ccc1O2` [Example 11, (4R)-2′-propoxy-7′-(5-pyrimidinyl)spiro[1,3-oxazole-4,9′-xanthen]-2-amine], the IC50 at BACE1 [1] (Table 1) is 0.1 to 1 µM; at BACE1 [2] (Table 1, Aβ40, 24 h incubation) it was 1 to 5 µM.
With `COC(C)(C)COc1cnc2c(c1)[C@]1(COC(N)=N1)c1cc(-c3ccccc3)ccc1O2` [compound 350], the IC50 at BACE1 [1] (setting [3]) and on BACE1 [2] (setting [4]) was below 0.1 µM each time.
`NC1=N[C@@]2(CO1)c1cc(-c3cccnc3)ccc1Oc1cnc(C3=CCCCC3)cc12` [compound 789]: the IC50 at BACE1 [1] and on BACE1 [2] was below 0.1 µM throughout.
Consider `CC1(COc2ccc3c(c2)[C@@]2(COC(N)=N2)c2cc(-c4cccc(Cl)c4)cnc2O3)COC1` [compound 772], for which the IC50 at BACE1 [1] is below 0.1 µM; at BACE1 [2] it was 0.1 to 1 µM.
Take `CC(C)C(O)COc1ccc2c(c1)[C@]1(COC(N)=N1)c1cc(-c3cccnc3)ccc1O2` (stereo partly drawn) [compound 866]: the IC50 on BACE1 [1] (Table IV, class symbols) was below 0.1 µM; at BACE1 [2] (Table IV, class symbols), 0.1 to 1 µM.
